Assay results from paper PMC10726354, “Design, Synthesis, and Biological Evaluation of Small-Molecule-Based Radioligands with Improved Pharmacokinetic Properties for Imaging of Programmed Death Ligand 1” (Journal of Medicinal Chemistry, 2023).
Several values for one entry are separate records, joined by “and”; a condition that tells them apart may be missing. Identical values can stand only once.

Legend:
[1] = test system: PC3 mock tumor; test: Small-animal PET, uptake in mock tumor; settings: for SUVmax PC3 mock tumor: tracer only; for SUVmax PC3 mock tumor +block: blocker i.v. before tracer: Cu-1 100 nmol 1, Cu-2 100 nmol 2, Cu-3 1000 nmol 4, Cu-4 500 nmol 4, Cu-6 250 nmol 1 (~5 min prior), Cu-5 100 nmol 5 (~30 min prior); for blocking effect on SUVmax in the mock tumor: 24–25 h p.i., blocker: Cu-1, Cu-2 100 nmol unlabeled compound, Cu-3 1000 nmol 4
Procedure: (§1) Changes are reported as % change of the SUVmax of the PD-L1 expressing over the respective value of the mock tumor. Similarly, the effect of blocking is reported as % change of the SUVmax of the animal injected with cold compound over that of the animal that received tracer only.
(§2) Animal experiments were performed in accordance with the guidelines of the German Regulations for Animal Welfare, approved by the Saxonian Ethical Committee for Animal Experiments (reference number DD24.1-5131/449/49). Male athymic NMRI-nude mice (Rj: NMRI-Foxn1^nu/nu, Janvier Laboratories, Le Genest-Saint-Isle, France) between 8 and 22 weeks of age were used. Under general anesthesia, [∼10% desflurane (Baxter, Deerfield, IL, USA) in 30 vol % oxygen + air] and warming, the animals were subcutaneously injected with 3–5 × 10^6 PC3-PD-L1 and PC3-mock cells [in 50 μL PBS +50 μL Matrigel (Corning, Glendale, USA)] into the right and left thigh, respectively. Tumor growth was monitored three times a week by caliper measurements, and mice with tumor sizes above 7 mm were included in the experiments.
(§3) For PET studies, general anesthesia was induced as described above. PET and X-ray computed tomography (CT) were performed in a dedicated small animal nanoScan PET/CT scanner, with four animals imaged simultaneously (Mediso, Budapest, Hungary). CT images were employed for attenuation correction and anatomical referencing. Animals received three individual scans corresponding to 0–2 h (dynamic) and 4.5 and 24 h (static) postinjection.
(§4) PD-L1 radiotracer candidates (in 300 μL sterile 0.9% NaCl/HEPES buffer, pH 6–7, between 7 and 12 MBq, molar activities > 12 GBq/μmol) were delivered over 30 s i.v. (lateral tail vein) and PET acquisition started simultaneously. For blocking condition, a defined quantity of compound (the same unlabeled compound, one from the same series or BMS-1166) was diluted in sterile saline and injected i.v. approximately 5 min prior to the radiotracer. Animals not subjected to blocking were injected with vehicle at the same time.
(§5) Three-dimensional list mode data were binned using the 400–600 keV energy window and sorted into 36 time frames (15 × 10 s, 5 × 30 s, 5 × 60 s, 4 × 300 s, 3 × 600 s, 4 × 900 s). Time frames were reconstructed using the Tera-TomoTM 3D algorithm applying a voxel size of 0.4 mm and corrections for decay, scatter, and attenuation.
(§6) Three-dimensional volumes of interest were delineated applying fixed thresholding at 35% of the measured maximum intensity. Standardized uptake values (SUV = [MBq detected activity/mL tissue]/[MBq injected activity/g body weight], […]) were determined in selected volumes of interest, among these PD-L1 and mock tumors.
(§7) 14. In vivo: PET- SUV data
(§8) Standardized uptake values (SUVmax)
(§9) Supplementary table 1: In vivo standardized uptake values (SUVmax ± standard deviation) of 64Cu-labeled third series compounds [64Cu]Cu-1-6 at 1.5 (1–2), 4.5 (4–5) and 24.5 (24–25) hours
(§10) post injection (p.i.). Compounds used for blocking are described for each tracer and were intravenously injected in sterile saline at stated time before the radiotracer. Animals designated for
(§11) tracer-only received matched type and volume of vehicle at the same time.

[2] = test system: PC3 PD-L1-overexpressing tumor; test: Small-animal PET, uptake in PD-L1-overexpressing tumor; settings: for SUVmax PC3 PD-L1 overexpressing tumor: tracer only; for SUVmax PC3 PD-L1 overexpressing tumor +block: blocker i.v. before tracer: Cu-1 100 nmol 1, Cu-2 100 nmol 2, Cu-3 1000 nmol 4, Cu-4 500 nmol 4, Cu-6 250 nmol 1 (~5 min prior), Cu-5 100 nmol 5 (~30 min prior); for blocking effect of BMS-1166 on SUVmax / tumor uptake: any time point, Cu-3: 750 nmol BMS-1166 intraperitoneally 60 min prior, Cu-6: 250 nmol BMS-1166 5 min before
Procedure: as §1, §2, §3, §4, §5, §6, §7, §8, §9, §10, §11

[3] = Kinetic stability in PBS buffer (pH 7.4), radio-HPLC; format: physicochemical; settings: room temperature; for intact radioligand in PBS (pH 7.4): radio-HPLC at 1, 24 and 48 h
Procedure: The kinetic stability of all ^64Cu-labeled ligands was investigated in PBS buffer solution (pH 7.4) by incubation at room temperature and monitoring with radio-HPLC up to 48 h. […] During the time course, no changes in peak number/shape and retention time were observed, proving the stability of the compounds. […] At the 48 h time point, however, a shoulder appears with a slightly higher retention time (∼7.0 min), indicating minor decomposition (>94% intact radiotracer).
The corresponding radiotracer was labeled with approximately 500 MBq of ^64Cu in 50 μL of HEPES solution (adjusted to pH 4.5), as described above. After successful labeling, 450 μL of PBS solution (pH 7.4) was added, and the incubation was performed (room temperature) at 300 rpm. At each time point (1, 24, and 48 h), an aliquot was withdrawn and injected into the radio-HPLC (PerkinElmer, Massachusetts, United States system C or D, Supporting Information). Evaluation and graphical plotting were performed with OriginPro 9.0.

[4] = 1–2 h (1.5 h) p.i., blocker: Cu-3 1000 nmol 4, Cu-4 500/1000 nmol 4, Cu-5 100 nmol 5, Cu-6 250 nmol BMS-1166
[5] = 4–5 h (4.5 h) p.i., blocker: Cu-3 1000 nmol 4, Cu-4 500/1000 nmol 4, Cu-5 100 nmol 5, Cu-6 250 nmol BMS-1166
[6] = 24–25 h (24.5 h) p.i., blocker: Cu-1, Cu-2 100 nmol unlabeled compound, Cu-3 1000 nmol 4, Cu-4 500/1000 nmol 4, Cu-5 100 nmol 5, Cu-6 250 nmol BMS-1166

SMILES | SUVmax PC3 mock tumor ([1]; 1.5 (1–2) hours p.i.) | SUVmax PC3 mock tumor +block ([1]; 1.5 (1–2) hours p.i.) | SUVmax PC3 mock tumor ([1]; 4.5 (4–5) hours p.i.) | SUVmax PC3 mock tumor +block ([1]; 4.5 (4–5) hours p.i.) | blocking effect on SUVmax in the mock tumor [1] | SUVmax PC3 mock tumor ([1]; 24.5 (24–25) hours p.i.) | SUVmax PC3 mock tumor +block ([1]; 24.5 (24–25) hours p.i.) | SUVmax PC3 PD-L1 overexpressing tumor ([2]; 1.5 (1–2) hours p.i.) | SUVmax PC3 PD-L1 overexpressing tumor +block ([2]; 1.5 (1–2) hours p.i.) | SUVmax PC3 PD-L1 overexpressing tumor ([2]; 4.5 (4–5) hours p.i.) | SUVmax PC3 PD-L1 overexpressing tumor +block ([2]; 4.5 (4–5) hours p.i.) | SUVmax PC3 PD-L1 overexpressing tumor ([2]; 24.5 (24–25) hours p.i.) | SUVmax PC3 PD-L1 overexpressing tumor +block ([2]; 24.5 (24–25) hours p.i.) | intact radioligand in PBS (pH 7.4) [3] | blocking effect: % change of SUVmax in PD-L1 tumor vs tracer-only [2, 4] | % change of SUVmax of the PD-L1 expressing tumor over the mock tumor ([2]; 1–2 h p.i.) | blocking effect: % change of SUVmax in PD-L1 tumor vs tracer-only [2, 5] | % change of SUVmax of the PD-L1 expressing tumor over the mock tumor ([2]; 4–5 h p.i.) | blocking effect: % change of SUVmax in PD-L1 tumor vs tracer-only [2, 6] | % change of SUVmax of the PD-L1 expressing tumor over the mock tumor ([2]; 24–25 h p.i.) | also measured
Cc1c(COc2cc(OCc3cncc(C#N)c3)c(CN[C@@H](CS(=O)(=O)O)C(=O)NCCS(=O)(=O)O)cc2Cl)cccc1-c1cccc(OCc2cn(CCCN3CCN(C(=O)[C@H](CS(=O)(=O)O)NC(=O)CC[C@H](C(=O)O)N4CCN(CC(=O)O)CCN(CC(=O)O)CC4)CC3)nn2)c1C.[64Cu+2] [[^64Cu]Cu-1] | 1.0 | 1.4 | 0.8 | 1.0 | −41 to −54% | 1.2 | 0.7 | 1–1.5 | 1.3 | 1.1 | 1.0 | 1.4 | 1.1 | – | – | – | – | – | – | – | SUVmax PC3 PD-L1 overexpressing tumor ([2]; 1.5 (1–2) hours p.i., listed as [64Cu]Cu-1): 1.5
Cc1c(COc2cc(OCc3cncc(S(C)(=O)=O)c3)c(CN[C@@H](CS(=O)(=O)O)C(=O)NCCS(=O)(=O)O)cc2Cl)cccc1-c1cccc(OCc2cn(CCCN3CCN(C(=O)[C@H](CS(=O)(=O)O)NC(=O)CC[C@H](C(=O)O)N4CCN(CC(=O)O)CCN(CC(=O)O)CC4)CC3)nn2)c1C.[64Cu+2] [[^64Cu]Cu-3] | 0.85 ± 0.05 | 0.80 ± 0.1 | 0.55 ± 0.15 | 0.55 ± 0.05 | 36% | 0.7 ± 0.2 | 0.45 ± 0.05 | 3.5 | 1.0 ± 0.1 | 2.6 ± 0.1 | 0.7 ± 0.3 | 1.35 | 0.65 ± 0.05 | > 99% | −71% | 311% | −73% | 372% | −52% | 93% | blocking effect in the mock tumor ([1]; 1–2 and 4–5 h p.i., 1000 nmol unlabeled compound 4): negligible; SUVmax PC3 PD-L1 overexpressing tumor ([2]; 1.5 (1–2) hours p.i., listed as [64Cu]Cu-3): 3.5 ± 0.2; SUVmax PC3 PD-L1 overexpressing tumor ([2]; 24.5 (24–25) hours p.i., listed as [64Cu]Cu-3): 1.35 ± 0.15; blocking effect of BMS-1166 on SUVmax / tumor uptake [2]: no effect
Cc1c(COc2cc(OCc3cncc(S(C)(=O)=O)c3)c(CN[C@@H](CS(=O)(=O)O)C(=O)NCCP(=O)(O)O)cc2Cl)cccc1-c1cccc(OCc2cn(CCCN3CCN(C(=O)[C@H](CP(=O)(O)O)NC(=O)CC[C@H](C(=O)O)N4CCN(CC(=O)O)CCN(CC(=O)O)CC4)CC3)nn2)c1C.[64Cu+2] [[^64Cu]Cu-6] | 0.83 ± 0.08 | 1.04 ± 0.15 | 1.35 ± 0.15 | 1.7 ± 0.1 | – | 2.2 ± 0.2 | 3.05 ± 0.35 | 1.83 ± 0.37 | 2.28 ± 0.46 | 1.55 ± 0.05 | 1.8 ± 0.3 | 2.2 ± 0.1 | 2.3 ± 0.4 | > 99% | +25% | 121% | +16% | – | – | – | intact radiotracer in PBS (pH 7.4) at 48 h ([3]; 48 h): > 94%; blocking effect of BMS-1166 on SUVmax / tumor uptake [2]: no blocking effect
Cc1c(COc2cc(OCc3cncc(S(C)(=O)=O)c3)c(CN[C@@H](CS(=O)(=O)O)C(=O)NCCP(=O)(O)O)cc2Cl)cccc1-c1cccc(OCc2cn(CCCN3CCN(C(=O)[C@H](CS(=O)(=O)O)NC(=O)CC[C@H](C(=O)O)N4CCN(CC(=O)O)CCN(CC(=O)O)CC4)CC3)nn2)c1C.[64Cu+2] [[^64Cu]Cu-5] | 0.80 ± 0.10 | 0.75 ± 0.05 | 1.1 ± 0.1 | 0.85 ± 0.05 | – | 1.05 ± 0.65 | 1.6 ± 0.00 | 3.25 | 1.75 ± 0.35 | 1.75 | 1.65 ± 0.15 | 1.2 | 1.55 ± 0.05 | > 99% | −46% | 306% | −6% and −5% | +59% | +29% | +14% | SUVmax PC3 PD-L1 overexpressing tumor ([2]; 1.5 (1–2) hours p.i., listed as [64Cu]Cu-5): 3.25 ± 0.25; SUVmax PC3 PD-L1 overexpressing tumor ([2]; 4.5 (4–5) hours p.i., listed as [64Cu]Cu-5): 1.75 ± 0.15; SUVmax PC3 PD-L1 overexpressing tumor ([2]; 24.5 (24–25) hours p.i., listed as [64Cu]Cu-5): 1.2 ± 0.8
